Test results from US9114158B2, “Compounds and methods of use in ablative radiotherapy” (The Johns Hopkins University, priority 2011, dated 2015).

Assays:
[1] = system: A549 cells; assay: Combination of RK-33 and radiation in A549 cells, Chou-Talalay analysis; assay type: cell-based; details: 4 and 6 μM RK-33 with 2 and 7 gray of radiation
Description: FIG. 8 is a set of bar graphs depicting the effect of radiation and RK-33 on A549 cells. […] Experiments were performed in triplicate.
Clonogenic assays. About 1×10^5 A549 cells were treated with RK-33 (1-6 μM) and to increasing dose of IR (1-20 Gy). After 24 hours, 500 cells from each combination treatment will be plated into a 6-well plate. Following incubation for 1-3 weeks, colonies were fixed in glutaraldehyde (6.0% v/v), stained with crystal violet (0.5% w/v) and counted using a stereomicroscope. Clusters of >50 cells (i.e., six cell doubling times) were scored as colonies. The amount of radiosensitization by RK-33 was determined using the Chou-Talalay equation to determine the combination index (CI). A CI 0.9-1.1 was indicative of additivity while a CI <0.9 indicated synergism. The survival curves, S, were fit to the linear-quadratic model S=exp(−αD-βD2) to determine classical parameters of radiation sensitivity.
Combinatorial effect of RK-33 and radiation in lung cancer cell line, A549. Given the current treatment protocol for lung cancer patients, which includes chemotherapy and radiation, the cell killing abilities of RK-33 was evaluated in combination with radiation in a chemotherapy/radiation resistant lung cancer cell line, A549 (FIG. 7). […] For this experiment, RK-33 below the IC50 value was used to determine if there was any additive or synergistic effect. […]

[2] = Biodistribution of RK-33 in mice by LC/MS/MS; assay type: in vivo; details: I.P. single dose of 20 mg/kg; 30 minutes, 60 minutes and 24 hours
Description: FIG. 9 is a set of curves illustrating the biodistribution of RK-33 in mice at different time intervals using an LC/MS/MS method. A total of five mice per time point were used for this study.
Analysis of the toxicity of RK-33 in SCID mice. […] Subsequently, we carried out pharmacokinetics in multiple tissue compartments. For this a LC/MS/MS method was developed for determination of RK-33 in mouse plasma (FIG. 9-inset). Sample preparation involved acetonitrile precipitation and separation of RK-33 and the internal standard, temazepam, was achieved on a Waters Xterra column. […] The animals were injected I.P. (single dose of 20 mg/kg with five animals per arm) and the tissue harvested at different time intervals (30 minutes, 60 minutes and 24 hours) and analyzed.

[3] = target: T1, DDX3 (Homo sapiens, UniProt O00571); assay: DDX3 helicase unwinding assay with duplex oligos; assay type: biochemical; details: 100 μM RK-33, over a period of 80 minutes
T1 construct: made in house; host or cells: pET system (Novagen); E. coli is my own knowledge of the pET system
Description: FIG. 4 is a chart showing RK-33 inhibits helicase activity of DDX3.
Generating small molecular inhibitors of DDX3 function. As loss of DDX3 function abrogated colony forming abilities along with increased expression in lung carcinoma samples, a search was initiated to identify molecules that could target a functional substrate binding site of DDX3 protein. Initial work generated a fused diimidazodiazepine ring molecule (RK-33) to target RNA helicase. To confirm the functional activity of RK-33 on DDX3, an in vitro assay was carried out to determine the effects of RK-33 on helicase activity. DDX3 protein was synthesized using the pET system from Novagen. Following DDX3 purification, the unwinding assays were performed using duplex oligos, purified DDX3 and RK-33. Quantification was done by evaluating the pixel density of the native duplex oligos and the unwound oligos.

[4] = Toxicity of RK-33 in SCID mice, pathological examination after necropsy; assay type: in vivo
[5] = system: A549; assay: MTS assay, lung cancer cell line A549; assay type: cell-based
Description: FIG. 5 is a plot showing the effect of RK-33 on two lung cancer cell lines. Lung cancer cell lines were incubated with different concentrations of RK-33. At day 3, MTS assays were performed to determine the percentage of metabolically active cells. The experiments were repeated in triplicate. The IC50 values for H23 and A549 are 3.5 and 5 μM respectively. […] Experiments were performed in triplicate. To study the effects of RK-33 on cell growth and proliferation, lung cancer cell lines (H23 and A549) were used for the initial studies. […] To the best of our knowledge, this is the first data set of evaluating the efficacy of a small molecule inhibitor of DDX3 to kill lung cancer cells.

[6] = system: H23; assay: MTS assay, lung cancer cell line H23; assay type: cell-based
Description: FIG. 5 is a plot showing the effect of RK-33 on two lung cancer cell lines. Lung cancer cell lines were incubated with different concentrations of RK-33. At day 3, MTS assays were performed to determine the percentage of metabolically active cells. The experiments were repeated in triplicate. The IC50 values for H23 and A549 are 3.5 and 5 μM respectively.
To study the effects of RK-33 on cell growth and proliferation, lung cancer cell lines (H23 and A549) were used for the initial studies. […] To the best of our knowledge, this is the first data set of evaluating the efficacy of a small molecule inhibitor of DDX3 to kill lung cancer cells.

[7] = system: lung tumors in CRT mice; assay: RK-33 and radiation in CRT autochthonous lung tumor mice, microCT tumor volume; assay type: in vivo
Description: FIG. 11 is a bar graph showing the chemosensitization of RK-33 with radiation to reduce lung tumors in CRT mice. Following RK-33 and radiation treatment, the animals were imaged using microCT (data not shown). The bar graph depicts the reduction of lung tumor volume in n=8 animals per group. The tumor volumes were quantified from the CBCT data set using the image and volume contouring utility of the Pinnacle3 Radiation Therapy Planning software v.8.1y (Philips Inc., Madison, Wis.) used in the clinic for human patients. Each CBCT data set contains full 3D volumetric data for the tumor burden estimation.
Generating the CRT mice and drug treatment. As shown in the results, the functional utility of CRT mice was validated. CRT mice are generated from combinations of bi-transgenic mice; e.g., CT X CR. CRT mice were activated shortly after weaning, four-five weeks old, by doxycycline administered in their drinking water (up to 2 mg/ml) in a total volume of 350 ml to simultaneously activate both Twist1 and KrasG12D transgenes. Fresh doxycycline containing water was administered weekly. Ten weeks post transgene induction, the mice were imaged by microCT to determine tumor load. Induction of the transgenes and imaging the tumor load by microCT were continuous (weekly) till the end of the experiment. Following induction and establishment of lung tumors, RK-33 (1 mM equivalent to 40 mg/Kg) was injected intraperitoneally in combination with radiation at schedules described in the table below. The number of animals used in each group was 25.
MicroCT procedures. Presently a small animal radiation research platform for radiation treatment of animals was developed. […]
Thoracic image-guided irradiation. […] Fifteen Gy radiation calculated at the isocenter was delivered using a single posterior field. […]
Endpoints for in vivo experiments. […] Animals following treatment are monitored daily by animal care staff and 3×/week by investigators for signs of mortality and morbidity. […]

[8] = system: Cells engineered to express a hypoxia induced red fluorescent protein (tdTomato); assay: Cell death under hypoxic conditions (CoCl2 hypoxia mimetic); assay type: cell-based; details: CoCl2 24 hours, then RK-33 72 hours
Description: Cells engineered to express a hypoxia induced red fluorescent protein (tdTomato) were incubated with CoCl2 (hypoxia mimetic compound) for 24 hours, following which RK-33 was added and incubated for 72 hours. Photomicrographs were taken at 20×. Experiments were repeated twice. Effect of hypoxia on the functional activity of RK-33 to induce cell death. During solid tumor biogenesis, regions of hypoxia develop within the tumor due to inadequate and poorly formed vasculature. […] In addition, some have posited that tumor hypoxia is a major limiting factor of the curability by SABR at lower radiation dose. […] To evaluate efficacy of RK-33 to induce cell death under hypoxic conditions, cells were incubated with CoCl2 (hypoxia mimetic compound) for 24 hours, following which RK-33 was added and incubated for 72 hours.

T1 sequence (O00571 whole entry): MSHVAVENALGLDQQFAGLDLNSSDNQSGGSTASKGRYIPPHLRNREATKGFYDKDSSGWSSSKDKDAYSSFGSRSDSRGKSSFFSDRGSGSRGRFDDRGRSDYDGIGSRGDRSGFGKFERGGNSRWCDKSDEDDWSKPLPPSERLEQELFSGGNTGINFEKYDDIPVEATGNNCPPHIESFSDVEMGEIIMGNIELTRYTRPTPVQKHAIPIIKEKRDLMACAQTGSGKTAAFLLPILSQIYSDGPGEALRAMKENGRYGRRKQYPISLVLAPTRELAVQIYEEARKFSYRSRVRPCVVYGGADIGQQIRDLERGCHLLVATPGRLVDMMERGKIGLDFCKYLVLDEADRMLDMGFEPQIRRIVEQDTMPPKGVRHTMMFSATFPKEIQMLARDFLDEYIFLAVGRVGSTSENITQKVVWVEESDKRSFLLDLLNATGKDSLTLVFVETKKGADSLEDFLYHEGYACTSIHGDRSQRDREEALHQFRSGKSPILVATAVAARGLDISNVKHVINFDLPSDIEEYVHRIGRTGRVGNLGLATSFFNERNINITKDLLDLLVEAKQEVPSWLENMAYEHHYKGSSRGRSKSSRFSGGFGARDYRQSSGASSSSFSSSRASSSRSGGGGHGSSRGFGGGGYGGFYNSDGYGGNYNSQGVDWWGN

For `COc1ccc(Cn2c3ncnc4c(ncn4Cc4ccc(OC)cc4)c-3nc2=O)cc1` [RK-33], which “combination effect with radiation on cell death (Chou-Talalay)” value [1] is on record?
Its value is “significant synergistic effect”.

And the brain exposures [2]?
The brain exposures was “well managed”.

And the target tissue concentrations [2]?
Its target tissue concentrations is “well above effective killing concentrations”.

What about the “reduction of unwinding of the duplex oligos” value [3] of the same compound?
Its value is “at least 60%”.

What about the “pathological examination of all tissues following necropsy” value [4] of the same compound?
The value was “no tissue damage”.

What about the “sensitivity of A549 cells in MTS assay” value [5] of the same compound?
Its value is “sensitive”.

What about the “effect on cell growth and proliferation” value ([5]; A549, 8 μM RK-33) of the same compound?
The value was “efficiently ablate”.

What about the IC50 ([5]; Homo sapiens, 72 h, A549, MTS at day 3) of the same compound?
Its IC50 is 5 µM.

What about the “effect on cell growth and proliferation” value ([6]; H23, 8 μM RK-33) of the same compound?
Its value is “efficiently ablate”.

And the IC50 ([6]; Homo sapiens, NCI-H23, 72 h, H23, MTS at day 3)?
The IC50 was 3.5 µM.

And the “tumor volume reduction, RK-33 combined with conventional fractionated radiation” value ([7]; 3 Gy x10)?
The value was “no synergy”.

And the “tumor response, single agent” value ([7]; RK-33 1 mM i.p. 3 times a week alone, microCT)?
The value was “stasis or perhaps slight regression”.

What about the “tumor response, RK-33 combined with SABR” value ([7]; RK-33 1 mM i.p. 3 times a week, 1 week before and 1 week after 15 Gy whole thorax SABR, microCT and H&E) of the same compound?
The value was “dramatic tumor regression”.

And the “activity to induce cell death under hypoxic conditions” value [8]?
Its value is “retain its activity both under normoxic and hypoxic conditions”.

Which “sensitivity of A549 cells in MTS assay” value [5] does the source give for `N.N.O=C([O-])C1(C(=O)[O-])CCC1.[Pt+2]` [carboplatin, reference compound] here?
The value was “resistant”.
